Measured values from patent US11840521B2, “Modulators of Mas-related G-protein receptor X4 and related products and methods” (Escient Pharmaceuticals, Inc., priority 2019, dated 2023).
Where two headings read alike, the source gives them in different places.

Target: MRGPRX4 (Homo sapiens, UniProt Q96LA9)
Experiment: MRGPR X4 antagonist activity, IP-One Gq HTRF assay in stably transfected HEK cells (versus agonist bilirubin, deoxycholic acid, conjugated bilirubin, urobilin, obeticholic acid or BAR502)
Assay type: cell-based
Parameters: expressed in transfected cells; host or cells: HEK cells, stably transfected
Experimental: HEK cells stably transfected to express human MRGPR X4 were maintained in an incubator at 37° C. with 5% CO2 and grown in DMEM media with 10% fetal bovine serum (FBS) and 1% each of sodium pyruvate, Glutamax, penicillin/streptomycin, and Geneticin. HEK cells stably transfected to express mouse MRGPR A1 were maintained in the same incubator and grown in DMEM media with 10% FBS, 1% each of sodium pyruvate, Glutamax, penicillin/streptomycin, Geneticin, and 2.2 mg/mL Hygromycin.
Cells were plated in a 384-well assay plate at 20,000 cells per well in 12 μL of Opti-MEM and kept in an incubator overnight. On the day of the assay, compounds solubilized at 10 mM in DMSO were added as a 10-point curve (10 uM final top concentration with 1:3 serial dilutions) using a Tecan D300E digital dispenser. […] Final concentrations of DMSO were kept consistent across the plate. Plates were incubated in the dark for 1 h at 37° C. and then for 30 minutes at room temperature. IP-1 standards and HTRF detection reagents were added according to the IP-One—Gq Kit purchased from Cisbio (part number 62IPAPEJ) and incubated in the dark for 1 h at room temperature. The plate was read on a Molecular Devices SpectraMax iD5 plate reader. The HTRF ratio was calculated from the raw data and graphed using GraphPad Prism to calculate an IC50 value for each compound.

[1] = versus 10 μM Bilirubin agonist, HEK cells expressing human MRGPR X4, read-out: MRGPR4 Antagonist Activity

MRGPRX4, sequence (Q96LA9 whole entry): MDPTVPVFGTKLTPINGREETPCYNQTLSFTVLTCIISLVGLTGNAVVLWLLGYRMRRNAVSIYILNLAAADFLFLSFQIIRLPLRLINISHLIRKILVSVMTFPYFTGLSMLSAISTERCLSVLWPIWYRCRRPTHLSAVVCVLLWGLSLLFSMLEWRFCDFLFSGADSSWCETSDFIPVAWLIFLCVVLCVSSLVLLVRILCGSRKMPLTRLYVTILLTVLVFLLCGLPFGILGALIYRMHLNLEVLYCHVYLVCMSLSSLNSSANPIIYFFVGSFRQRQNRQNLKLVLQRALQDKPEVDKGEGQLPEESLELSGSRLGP

Q: For `O=C(O)c1cccc(COc2cc3ccccc3cc2Cl)c1` [Compound 1-130], which IC50 [1] is on record?
A: 100 to 500 nM

Q: Which IC50 [1] does the source give for `O=C(O)c1cccc(COc2ccc3occc3c2)c1` [Compound 1-131] here?
A: 100 to 500 nM

Q: `O=C(O)c1cccc(COc2ccc(OC(F)(F)F)c(Cl)c2)c1` [Compound 1-132] was tested. Which IC50 [1] did it give?
A: < 100 nM

Q: How did the IC50 [1] turn out when `O=C(O)c1cccc(COc2ccc(C(F)(F)F)c(Cl)c2)n1` [Compound 1-133] was run?
A: < 100 nM

Q: `O=C(O)c1cccc(COc2ccc3sccc3c2)c1` [Compound 1-134] was tested. Which IC50 [1] did it give?
A: 100 to 500 nM

Q: With `O=C(O)c1cccc(COc2ccc(OC(F)F)cc2)c1` [Compound 1-135] as the compound, how does the IC50 [1] read?
A: 100 to 500 nM

Q: For `O=C(O)c1c(F)ccc(COc2ccc(C(F)(F)F)cc2Cl)c1F` [Compound 1-136], which IC50 [1] is on record?
A: < 100 nM

Q: Which IC50 [1] does the source give for `O=C(O)c1cc(COc2ccc(C(F)(F)F)cc2Cl)ccn1` [Compound 1-137] here?
A: 100 to 500 nM

Q: Which IC50 [1] does the source give for `Cc1cc(OCc2cccc(C(=O)O)c2)ccc1C(F)(F)F` [Compound 1-138] here?
A: > 2500 nM

Q: How did the IC50 [1] turn out when `Cc1cc(OCc2cccc(C(=O)O)c2)ccc1OC(F)(F)F` [Compound 1-139] was run?
A: > 2500 nM

Q: With `O=C(O)c1cccc(COc2cccc(C(F)(F)F)c2)c1` [Compound 1-140] as the compound, how does the IC50 [1] read?
A: 1000 to 2500 nM

Q: `O=C(O)c1cccc(COc2ccccc2C(F)(F)F)c1` [Compound 1-141] was tested. Which IC50 [1] did it give?
A: 1000 to 2500 nM

Q: For `O=C(O)c1cccc(COc2cccc(Br)c2Cl)c1` [Compound 1-142], which IC50 [1] is on record?
A: 100 to 500 nM

Q: For `Cc1ccc(OCc2cccc(C(=O)O)c2)c(Cl)c1Cl` [Compound 1-143], which IC50 [1] is on record?
A: < 100 nM

Q: Which IC50 [1] does the source give for `CC(C)(C)c1ccccc1OCc1cccc(C(=O)O)c1` [Compound 1-144] here?
A: > 2500 nM

Q: With `Cc1cc(OCc2cccc(C(=O)O)c2)ccc1C#N` [Compound 1-145] as the compound, how does the IC50 [1] read?
A: 100 to 500 nM

Q: Which IC50 [1] does the source give for `CC(C)c1ccccc1OCc1cccc(C(=O)O)c1` [Compound 1-146] here?
A: > 2500 nM

Q: For `COc1ccc(OCc2cccc(C(=O)O)c2)c2ccccc12` [Compound 1-147], which IC50 [1] is on record?
A: 1000 to 2500 nM

Q: How did the IC50 [1] turn out when `O=C(O)c1cccc(COc2ccc(Cl)c(F)c2Cl)c1` [Compound 1-148] was run?
A: < 100 nM

Q: How did the IC50 [1] turn out when `O=C(O)c1cccc(COc2ccc(Cl)c(Cl)c2F)c1` [Compound 1-149] was run?
A: < 100 nM

Q: How did the IC50 [1] turn out when `N#CCc1ccccc1OCc1cccc(C(=O)O)c1` [Compound 1-150] was run?
A: > 2500 nM

Q: `O=C(O)c1cccc(COc2ccc3c(c2)C(=O)CCC3)c1` [Compound 1-151] was tested. Which IC50 [1] did it give?
A: > 2500 nM

Q: `CNC(=O)c1ccc(OCc2cccc(C(=O)O)c2)cc1` [Compound 1-152] was tested. Which IC50 [1] did it give?
A: 1000 to 2500 nM

Q: How did the IC50 [1] turn out when `N#Cc1cc(Cl)c(F)cc1OCc1cccc(C(=O)O)c1` [Compound 1-153] was run?
A: 100 to 500 nM

Q: Which IC50 [1] does the source give for `Cc1c(OCc2cccc(C(=O)O)c2)ccc2c1OCC2=O` [Compound 1-154] here?
A: 100 to 500 nM

Q: Which IC50 [1] does the source give for `O=C(O)c1cc(Cl)cc(COc2ccc(Cl)cc2Cl)c1` [Compound 2-1, 3-chloro-5-((2,4-dichlorophenoxy)methyl)benzoic acid] here?
A: < 100 nM

Q: `COc1cc(COc2ccc(C(F)(F)F)cc2Cl)cc(C(=O)O)c1` [Compound 2-2] was tested. Which IC50 [1] did it give?
A: < 100 nM

Q: For `O=C(O)c1cc(Br)cc(COc2ccc(C(F)(F)F)cc2Cl)c1` [Compound 2-3], which IC50 [1] is on record?
A: < 100 nM

Q: For `Cc1cc(COc2ccc(Cl)c(Cl)c2Cl)nc(C(=O)O)c1` [Compound 2-4], which IC50 [1] is on record?
A: < 100 nM

Q: How did the IC50 [1] turn out when `N#Cc1cccc(COc2ccc(Cl)cc2Cl)c1` [Compound 3-1] was run?
A: 500 to 1000 nM

Q: For `Cc1ccc(OCc2cccc(C(=O)O)c2)c(Cl)c1` [Compound 3-2, 3-((2-chloro-4-methylphenoxy)methyl)benzoic acid], which IC50 [1] is on record?
A: 500 to 1000 nM

Q: Which IC50 [1] does the source give for `O=C(O)c1cccc(COc2cccc(-c3ccccc3)c2)c1` [Compound 3-3] here?
A: 1000 to 2500 nM

Q: `O=C(O)c1cccc(COc2cccc(Cl)c2Cl)c1` [Compound 3-4] was tested. Which IC50 [1] did it give?
A: 100 to 500 nM

Q: `Cc1cc(Cl)ccc1OCc1cccc(C(=O)O)c1` [Compound 3-5] was tested. Which IC50 [1] did it give?
A: 100 to 500 nM

Q: For `O=C(O)c1cccc(COc2ccc(Cl)c(Cl)c2)c1` [Compound 3-6], which IC50 [1] is on record?
A: 100 to 500 nM

Q: How did the IC50 [1] turn out when `Cc1ccc(OCc2cccc(C(=O)O)c2)c(C)c1` [Compound 3-7] was run?
A: 1000 to 2500 nM

Q: Which IC50 [1] does the source give for `O=C(O)c1cccc(COCc2ccc(Cl)cc2Cl)c1` [Compound 3-8] here?
A: 1000 to 2500 nM

Q: Which IC50 [1] does the source give for `O=C(O)c1cccc(COc2cc(Cl)cc(Cl)c2)c1` [Compound 3-9] here?
A: 1000 to 2500 nM

Q: With `O=C(O)c1ccc(F)c(COc2ccc(Cl)cc2Cl)c1` [Compound 4-2] as the compound, how does the IC50 [1] read?
A: 1000 to 2500 nM

Q: For `O=C(O)c1cc(COc2ccc(Cl)cc2Cl)ccc1F` [Compound 4-3], which IC50 [1] is on record?
A: 100 to 500 nM

Q: Which IC50 [1] does the source give for `O=C(O)c1cc(F)cc(COc2ccc(Cl)cc2Cl)c1` [Compound 4-4] here?
A: < 100 nM

Q: Which IC50 [1] does the source give for `COc1cc(COc2ccc(Cl)cc2Cl)cc(C(=O)O)c1` [Compound 4-5] here?
A: < 100 nM

Q: Which IC50 [1] does the source give for `N#Cc1c(COc2ccc(Cl)cc2Cl)cccc1C(=O)O` [Compound 4-6] here?
A: 100 to 500 nM

Q: `Cc1cc(COc2ccc(Cl)cc2Cl)cc(C(=O)O)c1` [Compound 4-7] was tested. Which IC50 [1] did it give?
A: < 100 nM

Q: How did the IC50 [1] turn out when `Cc1c(COc2ccc(Cl)cc2Cl)cccc1C(=O)O` [Compound 4-8] was run?
A: 100 to 500 nM

Q: For `O=C(O)c1cccc(COc2ccc(Cl)cc2Cl)c1Cl` [Compound 4-9], which IC50 [1] is on record?
A: < 100 nM

Q: With `Cc1cc(COc2ccc3ccccc3c2)cc(C(=O)O)c1` [Compound 4-12] as the compound, how does the IC50 [1] read?
A: < 100 nM

Q: Which IC50 [1] does the source give for `O=C(O)c1cccc(COc2ccc(OC(F)(F)F)cc2Cl)c1F` [Compound 4-13] here?
A: < 100 nM

Q: How did the IC50 [1] turn out when `Cc1cc(COc2ccc(OC(F)(F)F)cc2Cl)cc(C(=O)O)c1` [Compound 4-14] was run?
A: < 100 nM

Q: `O=C(O)c1cccc(COc2ccc(C(F)(F)F)c(Cl)c2)c1F` [Compound 4-15] was tested. Which IC50 [1] did it give?
A: < 100 nM

Q: How did the IC50 [1] turn out when `O=C(O)c1cc(COc2ccc(C(F)(F)F)c(Cl)c2)cc(C(F)(F)F)c1` [Compound 4-16] was run?
A: 100 to 500 nM

Q: For `Cc1cc(COc2ccc(C(F)(F)F)c(Cl)c2)cc(C(=O)O)c1` [Compound 4-17], which IC50 [1] is on record?
A: < 100 nM

Q: With `O=C(O)c1nc(COc2ccc(C(F)(F)F)cc2Cl)ccc1F` [Compound 4-18] as the compound, how does the IC50 [1] read?
A: < 100 nM

Q: `O=C(O)c1nc(COc2ccc(C(F)(F)F)c(Cl)c2)ccc1F` [Compound 4-19] was tested. Which IC50 [1] did it give?
A: < 100 nM

Q: For `O=C(O)c1cc(COc2ccc(C(F)(F)F)cc2Cl)cc(C(F)(F)F)c1` [Compound 4-20], which IC50 [1] is on record?
A: 100 to 500 nM

Q: For `O=C(O)c1cccc(COc2ccc3ccccc3c2Cl)c1F` [Compound 4-21], which IC50 [1] is on record?
A: < 100 nM

Q: How did the IC50 [1] turn out when `O=C(O)c1cccc(COc2ccc3sccc3c2)c1F` [Compound 4-22] was run?
A: 100 to 500 nM

Q: How did the IC50 [1] turn out when `Cc1cc(N2CCCC2)ccc1OCc1cccc(C(=O)O)c1F` [Compound 4-23] was run?
A: 500 to 1000 nM

Q: Which IC50 [1] does the source give for `O=C(O)c1cccc(COc2ccc(N3CCCC3)cc2Cl)c1F` [Compound 4-24] here?
A: 500 to 1000 nM

Q: For `O=C(O)c1cccc(COc2ccc(-n3cccc3)cc2Cl)c1F` [Compound 4-25], which IC50 [1] is on record?
A: 100 to 500 nM

Q: With `O=C(O)c1cccc(COc2ccc3sccc3c2Cl)c1F` [Compound 4-26] as the compound, how does the IC50 [1] read?
A: < 100 nM

Q: With `Cc1cc(-n2cccc2)ccc1OCc1cccc(C(=O)O)c1F` [Compound 4-27] as the compound, how does the IC50 [1] read?
A: 100 to 500 nM

Q: For `O=C(O)c1cccc(COc2ccc(C(F)(F)F)cc2)c1F` [Compound 4-28], which IC50 [1] is on record?
A: < 100 nM

Q: How did the IC50 [1] turn out when `O=C(O)c1cccc(COc2ccccc2Cl)c1F` [Compound 4-29] was run?
A: > 2500 nM

Q: With `N#Cc1cc(COc2ccc(Cl)cc2Cl)cc(C(=O)O)c1` [Compound 5-1, 3-cyano-5-((2,4-dichlorophenoxy)methyl)benzoic acid] as the compound, how does the IC50 [1] read?
A: < 100 nM

Q: What about the IC50 (versus 10 μM Bilirubin agonist, read-out: IC50 (Bilirubin agonist)) of the same compound?
A: 10 nM

Q: What about the IC50 (versus 20 μM deoxycholic acid, read-out: IC50 (Deoxycholic Acid agonist)) of the same compound?
A: 23 nM

Q: And the IC50 (versus 20 μM obeticholic acid, read-out: IC50 (Obeticholic Acid Agonist))?
A: 6 nM

Q: What about the IC50 (versus 50 μM urobilin, read-out: IC50 (Urobilin Agonist)) of the same compound?
A: 6 nM

Q: What about the IC50 (versus 100 μM conjugated bilirubin, read-out: IC50 (Conjugated Bilirubin Agonist)) of the same compound?
A: 27 nM

Q: How did the IC50 [1] turn out when `N#Cc1ccc(COc2ccc(Cl)cc2Cl)cc1C(=O)O` [Compound 5-2] was run?
A: 1000 to 2500 nM

Q: Which IC50 [1] does the source give for `COc1c(COc2ccc(Cl)cc2Cl)cccc1C(=O)O` [Compound 6-1, 3-((2,4-dichlorophenoxy)methyl)-2-methoxybenzoic acid] here?
A: 1000 to 2500 nM
